This is an account of results in patent US11053239B2, “Compounds as BLC-2-selective apoptosis-inducing agents” (Fochon Pharmaceuticals, Ltd., priority 2017, dated 2021).

Read-outs that look alike come from different tables or passages of the source.

For one experiment, the system named is DOHH2 cells. The experiment in a line: Cell proliferation assay (MTS), DOHH2 cells. The experiment is classed as cell-based. As to conditions: DOHH2 (DSMZ ACC 47) cell proliferation, 5000 cells/well, 120 h, MTS, mechanism-based readout of Bcl-2 inhibition, read-out: DOHH2 IC50. From the text: (§1) MTS testing kit was purchased from Promega. The RPMI-1640, Fetal bovine serum and Penicillin-Streptomycin were purchased from Gibco. Dimethyl sulfoxide (DMSO) was purchased from Sigma.
(§2) To investigate whether a compound is able to inhibit the activity of Bcl-2 in cells, a mechanism-based assay using DOHH2 (DSMZ No.® ACC 47) and RS4; 11 (ATCC® CRL-1873™) cell was developed. In this assay, inhibition of Bcl-2 was detected by the inhibition of DOHH2 and RS4; 11 cells proliferation. DOHH2 and RS4; 11 cells were cultured in culture flasks to 40-80% confluence in RPMI-1640 plus 10% fetal bovine serum. Cells were collected and plated onto 96-well plates at desired cell density (DOHH2: 5000 cells/well; RS4; 11: 30000 cells/well). Plates were incubated overnight at 37° C., with 5% CO2 to adhere. Compounds were added to the plates, and the final compound concentrations were 10000, 3333, 1111, […], 124, 41, 14, 4.6 and 1.5 nM. Plates plated with DOHH2 or RS4; 11 cells were placed at 37° C., with 5% CO2 for 120 h (DOHH2) or 72 h (RS4; 11) respectively. 20 μl MTS/100 μl medium mixture solution were added to each well and incubate the plates for exactly 2 hours. The reaction was stopped by adding 25 μl 10% SDS per well. Measure absorbance at 490 nm and 650 nm (reference wavelength). ICso was calculated using GraphPad Prism 5.0.

The next experiment relates to RS4; 11 cells. Nature of the experiment: Cell proliferation assay (MTS), RS4; 11 cells. It is filed as cell-based. The conditions noted are these: RS4, 11 (ATCC CRL-1873) cell proliferation, 30000 cells/well, 72 h, MTS, mechanism-based readout of Bcl-2 inhibition, read-out: RS4, 11 IC50.
Text: as §1, §2

Regarding `CCN=S1(=O)CCN(CCNc2ccc(S(=O)(=O)NC(=O)c3ccc(N4CCN(CC5=C(c6ccc(Cl)cc6)CC(C)(C)CC5)CC4)cc3Oc3cnc4[nH]ccc4c3)cc2[N+](=O)[O-])CC1` [Example 34, 2-((1H-pyrrolo[2,3-b]pyridin-5-yl)oxy)-4-(4-((4′-chloro-5,5-dimethyl-3,4,5,6-tetrahydro-[1,1′-biphenyl]-2-yl)methyl)piperazin-1-yl)-A,-((4-((2-(1-(ethylimino)-1-oxido-1λ^6-thiomorpholino)ethyl)amino)-3-nitrophenyl)sulfonyl) benzamide], the IC50 worked out at 38 nM in the experiment on DOHH2 cells (Homo sapiens, DOHH-2, 120 h) and 106 nM in the experiment with RS4; 11 cells (Homo sapiens, RS4-11, 72 h).
Take `C[C@@H](CN1CCP(C)(=O)CC1)Nc1ccc(S(=O)(=O)NC(=O)c2ccc(N3CCN(CC4=C(c5ccc(Cl)cc5)CC(C)(C)CC4)CC3)cc2Oc2cnc3[nH]ccc3c2)cc1S(=O)(=O)C(F)(F)F` [Example 49, (S)-2-((1H-pyrrolo[2,3-b]pyridin-5-yl)oxy)-4-(4-((4′-chloro-5,5-dimethyl-3,4,5,6-tetrahydro-[1,1′-biphenyl]-2-yl)methyl)piperazin-1-yl)-N-((4-((1-(4-methyl-4-oxido-1,4-azaphosphinan-1-yl)propan-2-yl)amino)-3-((trifluoromethyl)sulfonyl)phenyl)sulfonyl)benzamide]: the IC50 in the experiment on DOHH2 cells (Homo sapiens, DOHH-2, 120 h) came out at 107 nM; with RS4; 11 cells (Homo sapiens, RS4-11, 72 h), 54 nM.
For `CC(C)OC(=O)N=S1(=O)CCN(C[C@H](C)Nc2ccc(S(=O)(=O)NC(=O)c3ccc(N4CCN(CC5=C(c6ccc(Cl)cc6)CC(C)(C)CC5)CC4)cc3Oc3cnc4[nH]ccc4c3)cc2[N+](=O)[O-])CC1` [Example 73, isopropyl (S)-(4-(2-((4-(N-(2-((1H-pyrrolo[2,3-b]pyridin-5-yl)oxy)-4-(4-((4′-chloro-5,5-dimethyl-3,4,5,6-tetrahydro-[1,1′-biphenyl]-2-yl)methyl)piperazin-1-yl)benzoyl)sulfamoyl)-2-nitrophenyl)amino)propyl)-1-oxido-1λ^6-thiomorpholin-1-ylidene)carbamate], the IC50 in the experiment on DOHH2 cells (Homo sapiens, DOHH-2, 120 h) amounted to 263 nM; with RS4; 11 cells (Homo sapiens, RS4-11, 72 h) it was 94 nM.
For the compound `CC(C)OC(=O)N=S1(=O)CCN(CC[C@H](C)Nc2ccc(S(=O)(=O)NC(=O)c3ccc(N4CCN(CC5=C(c6ccc(Cl)cc6)CC(C)(C)CC5)CC4)cc3Oc3cnc4[nH]ccc4c3)cc2[N+](=O)[O-])CC1` [Example 86, isopropyl (S)-(4-(3-((4-(N-(2-((1H-pyrrolo[2,3-b]pyridin-5-yl)oxy)-4-(4-((4′-chloro-5,5-dimethyl-3,4,5,6-tetrahydro-[1,1′-biphenyl]-2-yl)methyl)piperazin-1-yl)benzoyl)sulfamoyl)-2-nitrophenyl)amino)butyl)-1-oxido-1λ^6-thiomorpholin-1-ylidene) carbamate], the IC50 worked out at 35 nM in the experiment with DOHH2 cells (Homo sapiens, DOHH-2, 120 h) and 23 nM in the experiment with RS4; 11 cells (Homo sapiens, RS4-11, 72 h).
Take `CC1(C)CCC(CN2CCN(c3ccc(C(=O)NS(=O)(=O)c4ccc(NCC(CF)N5CCP(C)(=O)CC5)c([N+](=O)[O-])c4)c(Oc4cnc5[nH]ccc5c4)c3)CC2)=C(c2ccc(Cl)cc2)C1` (stereo not drawn) [Example 13, 2-((1H-pyrrolo[2,3-b]pyridin-5-yl)oxy)-4-(4-((4′-chloro-5,5-dimethyl-3,4,5,6-tetrahydro-[1,1′-biphenyl]-2-yl)methyl)piperazin-1-yl)-N-((4-((3-fluoro-2-(4-methyl-4-oxido-1,4-azaphosphinan-1-yl)propyl)amino)-3-nitrophenyl)sulfonyl)benzamide]: the IC50 with DOHH2 cells (Homo sapiens, DOHH-2, 120 h) was determined as 615 nM; in the experiment on RS4; 11 cells (Homo sapiens, RS4-11, 72 h) it was 397 nM.
In the case of `CC1(C)CCC(CN2CCN(c3ccc(C(=O)NS(=O)(=O)c4ccc(NCC5CCC(N=S(C)(C)=O)CC5)c([N+](=O)[O-])c4)c(Oc4cnc5[nH]ccc5c4)c3)CC2)=C(c2ccc(Cl)cc2)C1` (single isomer, unassigned) [Example 50A, 2-((1H-pyrrolo[2,3-b]pyridin-5-yl)oxy)-4-(4-((4′-chloro-5,5-dimethyl-3,4,5,6-tetrahydro-[1,1′-biphenyl]-2-yl)methyl)piperazin-1-yl)-N-((4-(((4-((dimethyl(oxo)-λ^6-sulfanylidene)amino)cyclohexyl)methyl)amino)-3-nitrophenyl)sulfonyl) benzamide], the IC50 in the experiment on DOHH2 cells came to 3.5 nM; with RS4; 11 cells (Homo sapiens, RS4-11, 72 h), 3 nM.
With `C[C@@H](CCN1CCC(N=S(C)(C)=O)CC1)Nc1ccc(S(=O)(=O)NC(=O)c2ccc(N3CCN(CC4=C(c5ccc(Cl)cc5)CC(C)(C)CC4)CC3)cc2Oc2cnc3[nH]ccc3c2)cc1[N+](=O)[O-]` [Example 96, (S)-2-((1H-pyrrolo[2,3-b]pyridin-5-yl)oxy)-4-(4-((4′-chloro-5,5-dimethyl-3,4,5,6-tetrahydro-[1,1′-biphenyl]-2-yl)methyl)piperazin-1-yl)-N-((4-((4-(4-((dimethyl(oxo)-λ^6-sulfanylidene)amino)piperidin-1-yl)butan-2-yl)amino)-3-nitrophenyl)sulfonyl) benzamide], the IC50 in the experiment on DOHH2 cells (Homo sapiens, DOHH-2, 120 h) is 26 nM; with RS4; 11 cells (Homo sapiens, RS4-11, 72 h) it was 20 nM.
On to `CCN=S1(=O)CCN(CC[C@H](C)Nc2ccc(S(=O)(=O)NC(=O)c3ccc(N4CCN(CC5=C(c6ccc(Cl)cc6)CC(C)(C)CC5)CC4)cc3Oc3cnc4[nH]ccc4c3)cc2S(=O)(=O)C(F)(F)F)CC1` [Example 87, (S)-2-((1H-pyrrolo[2,3-b]pyridin-5-yl)oxy)-4-(4-((4′-chloro-5,5-dimethyl-3,4,5,6-tetrahydro-[1,1′-biphenyl]-2-yl)methyl)piperazin-1-yl)-N-((4-((4-(1-(ethylimino)-1-oxido-1λ^6-thiomorpholino)butan-2-yl)amino)-3-((trifluoromethyl)sulfonyl)phenyl)sulfonyl) benzamide], for which the IC50 in the experiment on DOHH2 cells was 266 nM; in the experiment on RS4; 11 cells it was 145 nM.
Regarding `CC1(C)CCC(CN2CCN(c3ccc(C(=O)NS(=O)(=O)c4ccc(NCCN5CCP(C)(=O)CC5)c([N+](=O)[O-])c4)c(Oc4cnc5[nH]ccc5c4)c3)CC2)=C(c2ccc(Cl)cc2)C1` [Example 2, 2-((1H-pyrrolo[2,3-b]pyridin-5-yl)oxy)-4-(4-((4′-chloro-5,5-dimethyl-3,4,5,6-tetrahydro-[1,1′-biphenyl]-2-yl)methyl)piperazin-1-yl)-N-((4-((2-(4-methyl-4-oxido-1,4-azaphosphinan-1-yl)ethyl)amino)-3-nitrophenyl)sulfonyl)benzamide], the IC50 with DOHH2 cells (Homo sapiens, DOHH-2, 120 h) came to 427 nM; in the experiment with RS4; 11 cells (Homo sapiens, RS4-11, 72 h) it was 163 nM.
`CC1(C)CCC(CN2CCN(c3ccc(C(=O)NS(=O)(=O)c4ccc(NCC5CCC(N=S6(=O)CCCC6)CC5)c(S(=O)(=O)C(F)(F)F)c4)c(Oc4cnc5[nH]ccc5c4)c3)CC2)=C(c2ccc(Cl)cc2)C1` (stereo not drawn) [Example 64, 2-((1H-pyrrolo[2,3-b]pyridin-5-yl)oxy)-4-(4-((4′-chloro-5,5-dimethyl-3,4,5,6-tetrahydro-[1,1′-biphenyl]-2-yl)methyl)piperazin-1-yl)-N-((4-(((4-((1-oxidotetrahydro-1λ^6-thiophen-1-ylidene)amino)cyclohexyl)methyl)amino)-3-((trifluoromethyl)sulfonyl)phenyl)sulfonyl)benzamide]: the IC50 with DOHH2 cells (Homo sapiens, DOHH-2, 120 h) was found to be 320 nM; in the experiment on RS4; 11 cells (Homo sapiens, RS4-11, 72 h), 216 nM.
The matching figures for `CC(C)C(=O)N=S1(=O)CCN(CCNc2ccc(S(=O)(=O)NC(=O)c3ccc(N4CCN(CC5=C(c6ccc(Cl)cc6)CC(C)(C)CC5)CC4)cc3Oc3cnc4[nH]ccc4c3)cc2[N+](=O)[O-])CC1` [Example 68, 2-((1H-pyrrolo[2,3-b]pyridin-5-yl)oxy)-4-(4-((4′-chloro-5,5-dimethyl-3,4,5,6-tetrahydro-[1,1′-biphenyl]-2-yl)methyl)piperazin-1-yl)-N-((4-((2-(1-(isobutyrylimino)-1-oxido-1λ^6-thiomorpholino)ethyl)amino)-3-nitrophenyl)sulfonyl) benzamide]: 217 nM and 24 nM.
In the case of `CCC(=O)N=S1(=O)CCN(C[C@H](C)Nc2ccc(S(=O)(=O)NC(=O)c3ccc(N4CCN(CC5=C(c6ccc(Cl)cc6)CC(C)(C)CC5)CC4)cc3Oc3cnc4[nH]ccc4c3)cc2[N+](=O)[O-])CC1` [Example 65, (S)-2-((1H-pyrrolo[2,3-b]pyridin-5-yl)oxy)-4-(4-((4′-chloro-5,5-dimethyl-3,4,5,6-tetrahydro-[1,1′-biphenyl]-2-yl)methyl)piperazin-1-yl)-N-((3-nitro-4-((l-(1-oxido-1-(propionylimino)-1λ^6-thiomorpholino)propan-2-yl)amino)phenyl)sulfonyl) benzamide], the IC50 with DOHH2 cells (Homo sapiens, DOHH-2, 120 h) was 31 nM; with RS4; 11 cells (Homo sapiens, RS4-11, 72 h) it was 11 nM.
